Source: ChEMBL document CHEMBL6114980, “Single or double lipid-modified ultra-short antimicrobial peptides for treating infections caused by resistant bacteria” (Eur J Med Chem, 2025)

Experiments:
Type in all cases: functional
Staphylococcus aureus [1] = experiment: Antibacterial activity against methicillin-resistant Staphylococcus aureus ATCC 33591 assessed as reduction in bacterial growth incubated for 18 to 24 hrs by broth microdilution method; conditions: time 18-24 hrs
Staphylococcus aureus [2] = experiment: Antibacterial activity against Staphylococcus aureus assessed as reduction in survival bacterial growth in presence of Mgcl2 measured after 18 to 24 hrs (reference value: 8 microM); conditions: time 18-24 hrs
Acinetobacter baumannii [3] = experiment: Antibacterial activity against Acinetobacter baumannii 92359 assessed as reduction in bacterial growth incubated for 18 to 24 hrs by broth microdilution method; conditions: time 18-24 hrs
Staphylococcus aureus [4] = experiment: Antibacterial activity against Staphylococcus aureus assessed as reduction in survival bacterial growth in presence of NaCl measured after 18 to 24 hrs (reference value: 8 microM); conditions: time 18-24 hrs
Staphylococcus aureus [5] = experiment: Antibacterial activity against Staphylococcus aureus assessed as reduction in survival bacterial growth in presence of FeCl3 measured after 18 to 24 hrs (reference value: 8 microM); conditions: time 18-24 hrs
[6] = tested on: Staphylococcus epidermidis; experiment: Antibacterial activity against Staphylococcus epidermidis ATCC 12228 assessed as reduction in bacterial growth incubated for 18 to 24 hrs by broth microdilution method; conditions: time 18-24 hrs
Acinetobacter baumannii [7] = experiment: Antibacterial activity against Acinetobacter baumannii ATCC 19606 assessed as reduction in bacterial growth incubated for 18 to 24 hrs by broth microdilution method; conditions: time 18-24 hrs
Escherichia coli [8] = experiment: Antibacterial activity against Escherichia coli assessed as reduction in survival bacterial growth in presence of ZnCl2 measured after 18 to 24 hrs (reference value: 2 microM); conditions: time 18-24 hrs
Escherichia coli [9] = experiment: Antibacterial activity against Escherichia coli assessed as reduction in survival bacterial growth in presence of MgCl2 measured after 18 to 24 hrs (reference value: 2 microM); conditions: time 18-24 hrs
Klebsiella pneumoniae [10] = experiment: Antibacterial activity against Klebsiella pneumoniae ATCC 700603 infected in male BALB/c mouse lung infection model assessed as reduction in bacterial load at 5 mg/kg, ip measured after 6 to 36 hrs (reference value: 1.77 10^6CFU/mg); conditions: time 6-36 hrs
Staphylococcus aureus [11] = experiment: Antibacterial activity against Staphylococcus aureus 794 assessed as reduction in bacterial growth incubated for 18 to 24 hrs by broth microdilution method; conditions: time 18-24 hrs
Staphylococcus aureus [12] = experiment: Antibacterial activity against Staphylococcus aureus assessed as reduction in survival bacterial growth by measuring fold change in presence of MgCl2 measured after 18 to 24 hrs; conditions: time 18-24 hrs
Escherichia coli [13] = experiment: Antibacterial activity against Escherichia coli assessed as reduction in survival bacterial growth by measuring fold change in presence of NaCl measured after 18 to 24 hrs; conditions: time 18-24 hrs
Staphylococcus aureus [14] = experiment: Antibacterial activity against Staphylococcus aureus assessed as reduction in survival bacterial growth in presence of ZnCl2 measured after 18 to 24 hrs (reference value: 8 microM); conditions: time 18-24 hrs
Enterococcus faecalis = experiment: Antibacterial activity against Enterococcus faecalis ATCC 29212 assessed as reduction in bacterial growth incubated for 18 to 24 hrs by broth microdilution method; conditions: time 18-24 hrs
Staphylococcus aureus [15] = experiment: Antibacterial activity against Staphylococcus aureus assessed as reduction in survival bacterial growth by measuring fold change in presence of NaCl measured after 18 to 24 hrs; conditions: time 18-24 hrs
Escherichia coli [16] = experiment: Antibacterial activity against Escherichia coli assessed as reduction in survival bacterial growth by measuring fold change in presence of ZnCl2 measured after 18 to 24 hrs; conditions: time 18-24 hrs
Pseudomonas aeruginosa [17] = experiment: Antibacterial activity against Pseudomonas aeruginosa ATCC 27853 assessed as reduction in bacterial growth incubated for 18 to 24 hrs by broth microdilution method; conditions: time 18-24 hrs
Escherichia coli [18] = experiment: Antibacterial activity against Escherichia coli 850 assessed as reduction in bacterial growth incubated for 18 to 24 hrs by broth microdilution method; conditions: time 18-24 hrs
Escherichia coli [19] = experiment: Antibacterial activity against Escherichia coli 780 assessed as reduction in bacterial growth incubated for 18 to 24 hrs by broth microdilution method; conditions: time 18-24 hrs
Escherichia coli [20] = experiment: Antibacterial activity against Escherichia coli assessed as reduction in survival bacterial growth in presence of NaCl measured after 18 to 24 hrs (reference value: 2 microM); conditions: time 18-24 hrs
Klebsiella pneumoniae [21] = experiment: Antibacterial activity against Klebsiella pneumoniae ATCC 700603 assessed as reduction in bacterial growth incubated for 18 to 24 hrs by broth microdilution method; conditions: time 18-24 hrs
Staphylococcus aureus [22] = experiment: Antibacterial activity against Staphylococcus aureus 125 assessed as reduction in bacterial growth incubated for 18 to 24 hrs by broth microdilution method; conditions: time 18-24 hrs
Escherichia coli [23] = experiment: Antibacterial activity against Escherichia coli ATCC 25922 assessed as reduction in bacterial growth incubated for 18 to 24 hrs by broth microdilution method; conditions: time 18-24 hrs
Escherichia coli [24] = experiment: Antibacterial activity against Escherichia coli assessed as reduction in survival bacterial growth in presence of FeCl3 measured after 18 to 24 hrs (reference value: 2 microM); conditions: time 18-24 hrs
Pseudomonas aeruginosa [25] = experiment: Antibacterial activity against Pseudomonas aeruginosa 6434N assessed as reduction in bacterial growth incubated for 18 to 24 hrs by broth microdilution method; conditions: time 18-24 hrs
Escherichia coli [26] = experiment: Bactericidal activity against Escherichia coli 25922 assessed as eradication of bacteria at 2 times MIC measured within 1 hr by time-kill assay relative to control
Pseudomonas aeruginosa [27] = experiment: Antibacterial activity against Pseudomonas aeruginosa 124 assessed as reduction in bacterial growth incubated for 18 to 24 hrs by broth microdilution method; conditions: time 18-24 hrs
Escherichia coli [28] = experiment: Antibacterial activity against Escherichia coli assessed as reduction in survival bacterial growth by measuring fold change in presence of MgCl2 measured after 18 to 24 hrs; conditions: time 18-24 hrs
Staphylococcus aureus [29] = experiment: Antibacterial activity against methicillin-resistant Staphylococcus aureus 75 assessed as reduction in bacterial growth incubated for 18 to 24 hrs by broth microdilution method; conditions: time 18-24 hrs
Staphylococcus aureus [30] = experiment: Antibacterial activity against Staphylococcus aureus assessed as reduction in survival bacterial growth in presence of KCl measured after 18 to 24 hrs (reference value: 8 microM); conditions: time 18-24 hrs
Staphylococcus aureus [31] = experiment: Antibacterial activity against Staphylococcus aureus ATCC 25923 assessed as reduction in bacterial growth incubated for 18 to 24 hrs by broth microdilution method; conditions: time 18-24 hrs
Escherichia coli [32] = experiment: Antibacterial activity against Escherichia coli assessed as reduction in survival bacterial growth in presence of KCl measured after 18 to 24 hrs (reference value: 2 microM); conditions: time 18-24 hrs
Acinetobacter baumannii [33] = experiment: Antibacterial activity against Acinetobacter baumannii 5444 assessed as reduction in bacterial growth incubated for 18 to 24 hrs by broth microdilution method; conditions: time 18-24 hrs

CC(C)CCCCC(=O)N[C@@H](CCN)C(=O)N[C@H](C(=O)N[C@@H](CCN)C(=O)N[C@H]1CCNC(=O)[C@H]([C@@H](C)O)NC(=O)[C@H](CCN)NC(=O)[C@H](CCN)NC(=O)[C@H](CC(C)C)NC(=O)[C@@H](Cc2ccccc2)NC(=O)[C@H](CCN)NC1=O)[C@@H](C)O.CC[C@H](C)CCCCC(=O)N[C@@H](CCN)C(=O)N[C@H](C(=O)N[C@@H](CCN)C(=O)N[C@H]1CCNC(=O)[C@H]([C@@H](C)O)NC(=O)[C@H](CCN)NC(=O)[C@H](CCN)NC(=O)[C@H](CC(C)C)NC(=O)[C@@H](Cc2ccccc2)NC(=O)[C@H](CCN)NC1=O)[C@@H](C)O
MIC (Staphylococcus aureus [1]): 16 µM | MIC (Staphylococcus aureus [2]): 16 µM | MIC (Acinetobacter baumannii [3]): 32 µM | MIC (Staphylococcus aureus [4]): 128 µM | MIC (Staphylococcus aureus [5]): 8 µM | MIC [6]: 8 µM | MIC (Acinetobacter baumannii [7]): 4 µM | MIC (Escherichia coli [8]): 1 µM | MIC (Escherichia coli [9]): 2 µM | Activity (Klebsiella pneumoniae [10]): 1.54 10^4CFU/mg | MIC (Staphylococcus aureus [11]): 16 µM | fold change (FC) (Staphylococcus aureus [12]): 2 | fold change (FC) (Escherichia coli [13]): 16 | MIC (Staphylococcus aureus [14]): 8 µM | MIC (Enterococcus faecalis): 128 µM | fold change (FC) (Staphylococcus aureus [15]): 16 | fold change (FC) (Escherichia coli [16]): 2 | MIC (Pseudomonas aeruginosa [17]): 4 µM | MIC (Escherichia coli [18]): 4 µM | MIC (Escherichia coli [19]): 4 µM | MIC (Escherichia coli [20]): 2 µM | MIC (Klebsiella pneumoniae [21]): 4 µM | MIC (Staphylococcus aureus [22]): 8 µM | MIC (Escherichia coli [23]): 2 µM | MIC (Escherichia coli [24]): 2 µM | MIC (Pseudomonas aeruginosa [25]): 2 µM | Activity (Escherichia coli [26]): 100% | MIC (Pseudomonas aeruginosa [27]): 16 µM | fold change (FC) (Escherichia coli [28]): 2 | MIC (Staphylococcus aureus [29]): 16 µM | MIC (Staphylococcus aureus [30]): 8 µM | MIC (Staphylococcus aureus [31]): 8 µM | MIC (Escherichia coli [32]): 2 µM | MIC (Acinetobacter baumannii [33]): 32 µM
